Reference: ChEMBL document CHEMBL3046070, “New N-arylamino biquinoline derivatives: microwave-assisted synthesis and their antimicrobial activities” (2013)
≈ marks a conversion by molar mass, not a printed value.

Legend:
Assay type in all cases: functional
[1] = tested on: Clostridium tetani; assay: Antibacterial activity against Clostridium tetani MTCC 449 assessed as growth inhibition after overnight incubation by NCCLS broth microdilution method
[2] = tested on: Streptococcus pneumoniae; assay: Antibacterial activity against Streptococcus pneumoniae MTCC 1936 assessed as growth inhibition after overnight incubation by NCCLS broth microdilution method
[3] = tested on: Bacillus subtilis; assay: Antibacterial activity against Bacillus subtilis MTCC 441 assessed as growth inhibition after overnight incubation by NCCLS broth microdilution method
[4] = tested on: Salmonella typhi; assay: Antibacterial activity against Salmonella enterica subsp. enterica serovar Typhi MTCC 98 assessed as growth inhibition after overnight incubation by NCCLS broth microdilution method
[5] = tested on: Vibrio cholerae; assay: Antibacterial activity against Vibrio cholerae MTCC 3906 assessed as growth inhibition after overnight incubation by NCCLS broth microdilution method
[6] = tested on: Escherichia coli; assay: Antibacterial activity against Escherichia coli MTCC 443 assessed as growth inhibition after overnight incubation by NCCLS broth microdilution method
[7] = tested on: Aspergillus fumigatus; assay: Antifungal activity against Aspergillus fumigatus MTCC 3008 assessed as growth inhibition after overnight incubation by NCCLS broth microdilution method
[8] = tested on: Candida albicans; assay: Antifungal activity against Candida albicans MTCC 227 assessed as growth inhibition after overnight incubation by NCCLS broth microdilution method

Compound | MIC [1] [µg/mL] | MIC [2] [µg/mL] | MIC [3] [µg/mL] | MIC [4] [µg/mL] | MIC [5] [µg/mL] | MIC [6] [µg/mL] | MIC [7] [µg/mL] | MIC [8] [µg/mL]
GENTAMICIN | 5 | 0.5 | 1 | 5 | 5 | 0.05 |  | 
CCOC(=O)C1=C(N)N(Nc2ccc(OC)cc2)C2=C(C(=O)CC(C)(C)C2)C1c1cc2cc(Cl)ccc2nc1Cl (stereo unspecified) | 250 (≈ 430 µM) | 500 (≈ 860 µM) | 500 (≈ 860 µM) | 250 (≈ 430 µM) | 250 (≈ 430 µM) | 250 (≈ 430 µM) | > 1000 | 1000 (≈ 1720 µM)
CCOC(=O)C1=C(N)N(Nc2ccc(F)cc2)C2=C(C(=O)CC(C)(C)C2)C1c1cc2cc(C)ccc2nc1Cl (stereo unspecified) | 100 (≈ 182 µM) | 200 (≈ 364 µM) | 200 (≈ 364 µM) | 200 (≈ 364 µM) | 100 (≈ 182 µM) | 100 (≈ 182 µM) | > 1000 | 100 (≈ 182 µM)
CCOC(=O)C1=C(N)N(Nc2ccccc2)C2=C(C(=O)CC(C)(C)C2)C1c1cc2cc(C)ccc2nc1Cl (stereo unspecified) | 500 (≈ 942 µM) | 250 (≈ 471 µM) | 500 (≈ 942 µM) | 250 (≈ 471 µM) | 100 (≈ 188 µM) | 100 (≈ 188 µM) | > 1000 | 500 (≈ 942 µM)
CCOC(=O)C1=C(N)N(Nc2ccc(Br)cc2)C2=C(C(=O)CC(C)(C)C2)C1c1cc2cc(Cl)ccc2nc1Cl (stereo unspecified) | 250 (≈ 397 µM) | 200 (≈ 317 µM) | 200 (≈ 317 µM) | 100 (≈ 159 µM) | 250 (≈ 397 µM) | 200 (≈ 317 µM) | 1000 (≈ 1590 µM) | 500 (≈ 793 µM)
NYSTATIN |  |  |  |  |  |  | 100 | 100
CCOC(=O)C1=C(N)N(Nc2ccc(C)cc2)C2=C(C(=O)CC(C)(C)C2)C1c1cc2cc(Cl)ccc2nc1Cl (stereo unspecified) | 500 (≈ 884 µM) | 100 (≈ 177 µM) | 250 (≈ 442 µM) | 500 (≈ 884 µM) | 500 (≈ 884 µM) | 500 (≈ 884 µM) | > 1000 | 250 (≈ 442 µM)
CCn1cc(C(=O)O)c(=O)c2cc(F)c(N3CCNCC3)cc21 [NORFLOXACIN] | 50 (≈ 157 µM) | 10 (≈ 31.3 µM) | 100 (≈ 313 µM) | 10 (≈ 31.3 µM) | 10 (≈ 31.3 µM) | 10 (≈ 31.3 µM) |  | 
CCOC(=O)C1=C(N)N(Nc2ccc(OC)cc2)C2=C(C(=O)CC(C)(C)C2)C1c1cc2cc(OC)ccc2nc1Cl (stereo unspecified) | 250 (≈ 433 µM) | 250 (≈ 433 µM) | 250 (≈ 433 µM) | 200 (≈ 347 µM) | 250 (≈ 433 µM) | 200 (≈ 347 µM) | 500 (≈ 866 µM) | 1000 (≈ 1730 µM)
CCOC(=O)C1=C(N)N(Nc2ccc(Cl)cc2)C2=C(C(=O)CC(C)(C)C2)C1c1cc2cc(Cl)ccc2nc1Cl (stereo unspecified) | 250 (≈ 427 µM) | 500 (≈ 853 µM) | 500 (≈ 853 µM) | 250 (≈ 427 µM) | 250 (≈ 427 µM) | 250 (≈ 427 µM) | 500 (≈ 853 µM) | 1000 (≈ 1710 µM)
CC1(C)S[C@@H]2[C@H](NC(=O)[C@H](N)c3ccccc3)C(=O)N2[C@H]1C(=O)O [AMPICILLIN] | 250 (≈ 715 µM) | 100 (≈ 286 µM) | 250 (≈ 715 µM) | 100 (≈ 286 µM) | 100 (≈ 286 µM) | 100 (≈ 286 µM) |  | 
CCOC(=O)C1=C(N)N(Nc2ccccc2)C2=C(C(=O)CC(C)(C)C2)C1c1cc2cc(OC)ccc2nc1Cl (stereo unspecified) | 250 (≈ 457 µM) | 200 (≈ 366 µM) | 200 (≈ 366 µM) | 250 (≈ 457 µM) | 250 (≈ 457 µM) | 250 (≈ 457 µM) | > 1000 | > 1000
CCOC(=O)C1=C(N)N(Nc2ccc(C)cc2)C2=C(C(=O)CC(C)(C)C2)C1c1cc2cc(OC)ccc2nc1Cl (stereo unspecified) | 125 (≈ 223 µM) | 100 (≈ 178 µM) | 200 (≈ 356 µM) | 62.5 (≈ 111 µM) | 500 (≈ 891 µM) | 125 (≈ 223 µM) | > 1000 | 500 (≈ 891 µM)
O=C(N[C@H](CO)[C@H](O)c1ccc([N+](=O)[O-])cc1)C(Cl)Cl [CHLORAMPHENICOL] | 50 (≈ 155 µM) | 50 (≈ 155 µM) | 50 (≈ 155 µM) | 50 (≈ 155 µM) | 50 (≈ 155 µM) | 50 (≈ 155 µM) |  | 
CCOC(=O)C1=C(N)N(Nc2ccc(Br)cc2)C2=C(C(=O)CC(C)(C)C2)C1c1cc2ccccc2nc1Cl (stereo unspecified) | 500 (≈ 839 µM) | 25 (≈ 42 µM) | 250 (≈ 420 µM) | 50 (≈ 83.9 µM) | 500 (≈ 839 µM) | 100 (≈ 168 µM) | > 1000 | > 1000
